The source made the active and inactive calls. How the calls were made is not given here.

In this assay the target is Peptidyl-prolyl cis-trans isomerase FKBP1A (Homo sapiens) (UniProt P62942). The assay is described as follows: FKBP12 binders, biophysical, NMR detection (AID 608). As to conditions: NMR binding, purified FKBP12.
Sequence of Peptidyl-prolyl cis-trans isomerase FKBP1A (Homo sapiens) (P62942 whole entry, looked up): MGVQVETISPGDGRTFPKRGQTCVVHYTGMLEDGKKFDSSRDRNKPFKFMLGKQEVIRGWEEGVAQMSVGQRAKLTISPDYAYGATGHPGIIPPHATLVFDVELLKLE
For orientation: Kd means the concentration at which binding is half-saturated. Take `Cc1c(C(=O)O)cnn1-c1ccccc1`: the Kd is > 4 mM (inactive).
As for `Cc1ccc(S(=O)(=O)CC(=O)N2CCOCC2)cc1`, the Kd was 0.095 mM.
As for `COC(=O)NNc1ncnc(N)c1[N+](=O)[O-]`, the figure is > 4 mM (inactive).
The value for `C[C@@H]1CC[C@@]23CCC4(C)[C@@](C=CC5[C@@]6(C)CC[C@H](O)C(C)(C)C6CC[C@]54C)(OC2=O)C3[C@H]1C` (stereo not given in full) was > 4 mM (inactive).
As for `CN1CCN(c2ccc(N)cc2)CC1`, the figure is > 4 mM (inactive); as for `Cc1noc(C)c1C(=O)N1CCC2(CC1)OCCO2`, > 4 mM (inactive); as for `CCOc1ccc(C)cc1S(=O)(=O)n1ccc(C)n1`, > 4 mM (inactive).
With `Cc1nc2sccn2c1C(=O)O`, the Kd was > 4 mM (inactive).
As for `Cn1ncc(N2CCOCC2)c(Cl)c1=O`, the figure is > 4 mM (inactive); as for `Cc1cc(C(=O)Nc2ccc3c(c2)OCCO3)c(C)o1`, > 4 mM (inactive).
The value for `Nc1nc2[nH]c(=O)c(=O)[nH]c2c(=O)[nH]1` was > 4 mM (inactive); that for `O=C(O)CSCc1c(F)cccc1Cl` was > 4 mM (inactive); that for `COC(=O)C[C@H]1C(C)(C)C(=O)[C@@H]2CC3C4=CC(=O)O[C@@H](c5ccoc5)[C@]4(C)CCC3C1(C)C2=O` (stereo not given in full) was > 4 mM (inactive).
As for `CC(C)NC(=S)N1CCN(S(C)(=O)=O)CC1`, the figure is > 4 mM (inactive); as for `Cc1nc2ccc(NC(=O)N3CCOCC3)cc2s1`, > 4 mM (inactive).
For `COc1cccc(C(=O)N2CCOCC2)c1`, the Kd is > 4 mM (inactive).
On to `O=C(Nc1ccccc1CO)c1ccccc1F`, for which the Kd was > 4 mM (inactive).
The value for `CN1CCC(N2CCOCC2)CC1` was > 4 mM (inactive); that for `C=CCCCCCCCCCCCC(O)CC(O)CO` (stereo not given) (tested in a mixture with another compound) was > 4 mM (inactive).
As for `COc1c2c(c(CC=C(C)C)c3oc(=O)c(-c4ccc(O)cc4)c(O)c13)OC(C)(C)C=C2`, the figure is > 4 mM (inactive); as for `O=C(c1ccc(N2CCNCC2)cc1)c1cccnc1`, > 4 mM (inactive).
As for `CSc1nnc2c(n1)OC(C)=Nc1ccccc1-2`, the figure is > 4 mM (inactive).
Take `CCNC(CC(=O)Nc1cccc([N+](=O)[O-])c1)C(=O)O` (stereo not given): the Kd was > 4 mM (inactive).
Turning to `CS(=O)(=O)N1CCC(C(=O)NC2CCCC2)CC1`, the Kd was > 4 mM (inactive).
The value for `N#CCN1C(=O)c2ccccc2S1(=O)=O` was > 4 mM (inactive).
The value for `O=C(O)Cn1nc(-c2ccccc2)c2ccccc2c1=O` was > 4 mM (inactive); that for `O=C(Nc1ccc(N2CCCC2=O)cc1)c1cccc(F)c1` was > 4 mM (inactive).
The value for `O=C(COc1ccc(Cl)cc1Cl)N1CCOCC1` was “inactive”; that for `Cc1ccc(NC(=O)CN2C(=O)CSC2=O)cc1` was > 4 mM (inactive); that for `C[C@@H]1CC[C@@]2(NC1)O[C@H]1C[C@H]3C4CC=C5C[C@@H](O)CC[C@]5(C)C4CC[C@]3(C)C1[C@@H]2C` (stereo not given in full) was > 4 mM (inactive).
Consider `CN1CC(=O)Nc2ccc([N+](=O)[O-])cc2C1=O`, for which the Kd is > 4 mM (inactive).
The value for `CC(=O)Oc1cc2c(C(C)=O)coc2c2ccccc12` was > 4 mM (inactive); that for `CN1CCCC1C(=O)O` (stereo not given) was > 4 mM (inactive).
As for `Cc1nn(C)c(Cl)c1C(O)c1c(C)nn(C)c1Cl`, the figure is > 4 mM (inactive).
As for `O=C(/C=C/C=C/c1ccc2c(c1)OCO2)N1CCCCC1`, the figure is > 4 mM (inactive); as for `O=C(CC1SC(=O)NC1=O)Nc1nccs1` (stereo not given), > 4 mM (inactive); as for `CCC1C(=O)OCC1Cc1cncn1C` (stereo not given), > 4 mM (inactive).
`Cc1csc(SCC(=O)N2CCCC2)n1`: the Kd is > 4 mM (inactive).
The value for `c1ccc2c(c1)nc(-c1cscn1)n2CCCCc1nn[nH]n1` was “inactive”; that for `CN1CCC(NC(=O)c2cccnc2)CC1` was > 4 mM (inactive).
As for `Nc1ccc2[nH]ncc2c1`, the figure is > 4 mM (inactive).
As for `Cc1sc2nc3n(c(=O)c2c1C)CCCS3`, the figure is > 4 mM (inactive).
In the case of `Cn1cnc2c(Cl)ncnc21`, the Kd is > 4 mM (inactive).
As for `CSc1ccc2nnc(-c3cccnc3)n2n1`, the figure is > 4 mM (inactive).
As to `COc1cc(OC)c2c(c1)O[C@H](c1ccc(OC)c(OC)c1)[C@@H](O)C2`, the Kd was > 4 mM (inactive).
As for `c1ccc(-c2noc(-c3ccco3)n2)nc1`, the figure is > 4 mM (inactive); as for `CC(=O)Nc1ccc(C(=O)n2nc(C)cc2C)cc1`, > 4 mM (inactive).
Take `CC(=O)NC(O)C(=O)c1ccccc1` (stereo not given): the Kd was > 4 mM (inactive).
Take `CCc1noc(C)c1C(=O)N1CCCC1`: the Kd was > 4 mM (inactive).
As for `Cc1nnc(SCC(=O)NC2CCCC2)[nH]c1=O`, the figure is > 4 mM (inactive); as for `CN1CCCn2c1nc1c2c(=O)[nH]c(=O)n1C`, > 4 mM (inactive).
The value for `Cc1nccn1CCC(=O)O` was > 4 mM (inactive); that for `Cc1nc2ccccc2c(=O)n1CCCn1ccnc1` was > 4 mM (inactive).
As for `CN1CCC2(CC1)CC1CC3C=CC1(CN2)O3` (stereo not given), the figure is > 4 mM (inactive); as for `O=c1c(O)c(-c2ccc(O)c(O)c2)oc2cc(O)ccc12`, > 4 mM (inactive); as for `CC(C)c1ccc(SC(F)(F)C(=O)N2CCOCC2)cc1`, 0.0028 mM.
With `CC1(C)C2C[C@@H](O)[C@]3(C)C(CC[C@@]4(C)[C@H](c5ccoc5)OC(=O)[C@H]5O[C@]543)[C@@]2(C)[C@@H](O)C[C@H]1O` (stereo not given in full), the Kd is > 4 mM (inactive).
Turning to `NCC(O)c1ccc(O)cc1` (stereo not given), the Kd is > 4 mM (inactive).
As for `Cn1cccc1C(=S)N1CCOCC1`, the Kd is > 4 mM (inactive).
For the compound `CC(=O)Nc1c(Cl)cnn(-c2ccccc2)c1=O`, the Kd was > 4 mM (inactive).
As to `NCc1cn2ccccc2n1`, the Kd was > 4 mM (inactive).
As for `CC1(C)NCCN2C(=O)CSC21` (stereo not given), the figure is > 4 mM (inactive); as for `Cc1ccc(O)c(NC(=O)c2ccco2)c1`, > 4 mM (inactive); as for `Cn1nnc2cc(C(=O)Nc3cccnc3)ccc21`, > 4 mM (inactive).
The value for `COc1ccc(-c2coc3c(O)c(OC)ccc3c2=O)cc1` was > 4 mM (inactive).
The value for `COc1cccc(NC(=O)c2ncn[nH]2)c1` was > 4 mM (inactive); that for `C[C@@H]1OC(O[C@H]2C(O[C@H]3CC[C@@]4(C)C(CC[C@]5(C)C4CC=C4C6CC(C)(C)CC[C@]6(C(=O)O)CC[C@]45C)[C@]3(C)CO)OC[C@H](O)[C@@H]2O)[C@H](O)[C@H](O)[C@H]1O` (stereo not given in full) was > 4 mM (inactive); that for `COc1cc(OC)cc(-c2nc(N)n[nH]2)c1` was > 4 mM (inactive).
Consider `C=C[C@@]1(C)CC(=O)[C@@]2(O)[C@](C)(O1)[C@@H](OC(C)=O)[C@@H](O)C1C(C)(C)CC[C@H](O)[C@@]12C` (stereo not given in full), for which the Kd was > 4 mM (inactive).
The value for `O=C1c2ccccc2C(=O)N1CCc1ccccn1` was > 4 mM (inactive); that for `Cc1oc(S(=O)(=O)N2CCCCC2)cc1C(=O)O` was > 4 mM (inactive); that for `O=c1[nH]cc(S(=O)(=O)N2CCc3ccccc32)c(=O)[nH]1` was > 4 mM (inactive).
The value for `Cc1nn2c(=O)c(NC(=O)c3ccccc3)cnc2s1` was > 4 mM (inactive); that for `COC(=O)c1cccc2cc[nH]c12` was > 4 mM (inactive); that for `COc1cc(C(C)=O)ccc1OCC(O)Cn1ccnc1` (stereo not given) was > 4 mM (inactive).
The value for `C=CC(=O)N1CC2CC(C1)c1cccc(=O)n1C2` (stereo not given) was > 4 mM (inactive); that for `CC1=NN(c2ccc(N)cc2)C(=O)C1` was > 4 mM (inactive); that for `CC(C)c1c(O)ccc2c1CCC1C(C)(C)CCC[C@]21C` (stereo not given in full) was > 4 mM (inactive).
On to `COc1ccc(CCC(=O)N2CCOCC2)cc1`, for which the Kd was 0.204 mM.
As for `Nc1c(N2CCCC2)cnn(-c2ccccc2)c1=O`, the figure is > 4 mM (inactive); as for `CC(C)CCCC(C)[C@H]1CCC2C3CC=C4C[C@@H](O)CC[C@]4(C)C3CC[C@@]21C` (stereo not given in full), > 4 mM (inactive).
Consider `O=C(O)c1cc(=O)[nH]c2ccccc12`, for which the Kd is > 4 mM (inactive).
The value for `NCC1COc2ccccc2O1` (stereo not given) was > 4 mM (inactive); that for `NC(=O)C1CCCN1S(=O)(=O)c1ccc(F)cc1` (stereo not given) was > 4 mM (inactive); that for `CCOc1ccc(C(=O)c2ccc(OC)c(O)c2O)cc1` was > 4 mM (inactive).
Regarding `COC(=O)CSc1nc(N)cc(=O)[nH]1`, the Kd is > 4 mM (inactive).
As for `COc1cccc(-c2cc(=O)c3cc(OC)ccc3o2)c1`, the Kd was > 4 mM (inactive).
The value for `O=C(NCc1ccccc1F)c1cccs1` was > 4 mM (inactive); that for `COCCn1c(C)cc(O)cc1=O` was > 4 mM (inactive); that for `c1ccc2c(c1)nnn2C1CCNCC1` was > 4 mM (inactive).
As for `COc1cc([C@@H]2c3cc4c(cc3[C@H](OC(C)=O)[C@H]3COC(=O)[C@H]23)OCO4)cc(OC)c1OC`, the figure is > 4 mM (inactive).
The value for `NCc1ccc(S(=O)(=O)O)cc1` was > 4 mM (inactive); that for `CCNC(=S)NS(=O)(=O)c1ccccc1` was > 4 mM (inactive); that for `CCOC(=O)c1ccc(F)cc1F` was > 4 mM (inactive).
For the compound `COC(=O)C1=C(C)N(Cc2ccco2)C(=O)C1`, the Kd is > 4 mM (inactive).
Take `O=C(O)c1ccccc1N1CCOCC1`: the Kd was > 4 mM (inactive).
As for `NCCC(=O)N[C@@H](Cc1cnc[nH]1)C(=O)O`, the figure is > 4 mM (inactive).
As to `O=C1NC(=S)NC(=O)C1=Cc1ccccc1O`, the Kd was > 4 mM (inactive).
As for `C=C1C(=O)OC2CC1C(OC(C)=O)C/C(C)=C/CC/C(C)=C/CC[C@]2(C)O` (stereo not given in full), the figure is > 4 mM (inactive); as for `COCC(=O)Nc1ccc(F)cc1F`, > 4 mM (inactive).

The record behind these values is PubChem BioAssay AID608 (Sanford-Burnham Center for Chemical Genomics, 2007).
